These results are taken from ChEMBL document CHEMBL5113486, “Hit-to-lead optimization of novel phenyl imidazole carboxamides that are active against Leishmania donovani” (Eur J Med Chem, 2022).

Data set [1] relates to Leishmania donovani. Description: Antileishmanial activity against Leishmania donovani infected in human THP-1 cells assessed as growth inhibition by intramacrophage assay. In kind it is functional, organism-based.
Data set [2] in a line: Cytotoxicity against human THP-1 cells assessed as cell growth inhibition. In kind it is toxicity, cell-based.
A short description of data set [3]: Selectivity index, ratio of CC50 for cytotoxicity against human THP-1 cells to IC50 for antileishmanial activity against Leishmania donovani infected in human THP-1 cells. It counts as toxicity, cell-based. Conditions: read-out: Ratio CC50/IC50.
The nature of data set [4]: Cytotoxicity against human HepG2 cells assessed as cell growth inhibition at 100 uM. It counts as toxicity, cell-based. Conditions: read-out: Activity.

Molecules are shown by their SMILES.

Turning to `Cn1c(-c2cccc(C#N)c2)cnc1NC(=O)c1ncc[nH]1`, the IC50 (in general, the concentration that inhibits the measured activity by half) in data set [1] was greater than 50 µM. The CC50 (in general, the concentration giving 50% cytotoxicity) in data set [2] is greater than 50 µM. For the same compound, the selectivity ratio in data set [3] was greater than 1.

`COc1ccc2c(c1)nc(NC(=O)c1ccc(F)cc1)n2C`: in data set [1], the IC50 came out at 38 µM. Also, the CC50 in data set [2] was greater than 100 µM. In addition, in data set [3], the selectivity ratio was greater than 2.6. Further, the inhibition at 100 µM in data set [4] is less than 50%.

As to `CCn1c(-c2ccc(OC)cc2)cnc1NC(=O)c1ccc(F)cc1`, in data set [1], the IC50 is greater than 100 µM. Besides, the CC50 in data set [2] is greater than 100 µM. In data set [3], the selectivity ratio was greater than 2.6. For the same compound, the inhibition at 100 µM in data set [4] was less than 50%.

Consider `COc1ccc(-c2cnc(NC(=O)c3cccc(Br)c3)n2C)cc1`, for which the IC50 in data set [1] was greater than 100 µM. For the same compound, the CC50 in data set [2] is greater than 100 µM. In addition, in data set [3], the selectivity ratio was greater than 1. Also, in data set [4], the inhibition at 100 µM was less than 50%.

For `COc1ccc(-c2cnc(NC(=O)c3ccc(F)cc3)n2Cc2ccccc2)cc1`, the IC50 in data set [1] is greater than 100 µM. In addition, in data set [2], the CC50 is greater than 100 µM. The selectivity ratio in data set [3] worked out at 1.4. The inhibition at 100 µM in data set [4] was less than 50%.

Take `COc1ccc(-c2cnc(NC(=O)c3ccc(F)cc3)n2C2CCCC2)cc1`: in data set [1], the IC50 is 35 µM. The CC50 in data set [2] was greater than 100 µM. Moreover, the selectivity ratio in data set [3] was greater than 1. Also, the inhibition at 100 µM in data set [4] was less than 50%.

Regarding `COc1ccccc1-c1cnc(NC(=O)c2ncc[nH]2)n1C`, in data set [1], the IC50 is greater than 50 µM. The CC50 in data set [2] was greater than 50 µM. Also, the selectivity ratio in data set [3] was greater than 1.

For `COc1ccc(-c2cnc(NC(=O)c3cccnc3)n2C)cc1`, the IC50 in data set [1] is greater than 100 µM. The CC50 in data set [2] is greater than 100 µM. In data set [3], the selectivity ratio was greater than 1. For the same compound, in data set [4], the inhibition at 100 µM was less than 50%.

For `COc1ccc(-c2cnc(NC(=O)c3ccc(F)cc3)[nH]2)cc1`, the IC50 in data set [1] is 38 µM. Also, the CC50 in data set [2] was greater than 100 µM. The selectivity ratio in data set [3] is greater than 8.3. Further, the inhibition at 100 µM in data set [4] is less than 50%.

`COc1ccc(-c2cnc(NC(=O)c3ccccc3C)n2C)cc1`: the IC50 in data set [1] worked out at 65 µM. In addition, in data set [2], the CC50 is greater than 100 µM. For the same compound, the selectivity ratio in data set [3] is greater than 1.5. In addition, the inhibition at 100 µM in data set [4] is less than 50%.

For the compound `COc1ccc(-c2cnc(NC(=O)c3ccco3)n2C)cc1`, the IC50 in data set [1] stood at 23 µM. Also, the CC50 in data set [2] is greater than 100 µM. Also, the selectivity ratio in data set [3] was greater than 4.3. Besides, the inhibition at 100 µM in data set [4] is less than 50%.

`COc1ccc(-c2cnc(NC(=O)c3ccc(Br)cc3)n2C)cc1`: in data set [1], the IC50 is greater than 100 µM. Also, the CC50 in data set [2] is greater than 100 µM. Also, in data set [3], the selectivity ratio is greater than 1. The inhibition at 100 µM in data set [4] is less than 50%.

Regarding `COc1ccc(-c2cnc(NC(=O)C3CCCC3)n2C)cc1`, in data set [1], the 50% inhibitory concentration (IC50) turned out to be 83 µM. Besides, the CC50 in data set [2] was greater than 100 µM. The selectivity ratio in data set [3] was greater than 1.2. The inhibition at 100 µM in data set [4] was less than 50%.

Turning to `COc1ccc(-c2cnc(NC(=O)Cc3ccccc3)n2C)cc1`, the half-inhibitory concentration (IC50) in data set [1] worked out at 25 µM. Further, in data set [2], the CC50 was greater than 100 µM. For the same compound, the selectivity ratio in data set [3] was greater than 4. Also, the inhibition at 100 µM in data set [4] was less than 50%.

As for `COc1ccc(-c2cnc(NC(=O)c3ccccc3O)n2C)cc1`, the IC50 in data set [1] is greater than 100 µM. Further, the CC50 in data set [2] is greater than 100 µM. For the same compound, in data set [3], the selectivity ratio was greater than 1. The inhibition at 100 µM in data set [4] is less than 50%.

Consider `COc1ccc(-c2cnc(NC(=O)c3ccccc3C#N)n2C)cc1`, for which the concentration for half-maximal inhibition (IC50) in data set [1] worked out at 14 µM. Also, the CC50 in data set [2] was greater than 100 µM. The selectivity ratio in data set [3] was greater than 7.1. Also, the inhibition at 100 µM in data set [4] was less than 50%.

Turning to `COc1ccc(-c2cnc(NC(=O)c3ccno3)n2C)cc1`, the IC50 in data set [1] is greater than 100 µM. The CC50 in data set [2] is greater than 100 µM. Besides, in data set [3], the selectivity ratio was greater than 1. In data set [4], the inhibition at 100 µM is less than 50%.

With `COc1ccc(-c2cnc(NC(=O)c3ccncc3)n2C)cc1`, in data set [1], the IC50 amounted to 44 µM. For the same compound, the CC50 in data set [2] is greater than 100 µM. For the same compound, the selectivity ratio in data set [3] is greater than 2.3. Also, in data set [4], the inhibition at 100 µM is less than 50%.

On to `Cn1c(-c2ccccc2Cl)cnc1NC(=O)c1ncc[nH]1`, for which the IC50 in data set [1] stood at 5.2 µM. In addition, the CC50 in data set [2] was greater than 50 µM. Besides, the selectivity ratio in data set [3] is greater than 9.6.
